In one series the test system is HEK293. Kind of series: Cytotoxicity against HEK293 cells assessed as reduction in cell viability at 10 uM measured after 72 hrs by CellTiter 96 Aqueous One Solution Cell Proliferation Assay. Format: toxicity, cell-based. The note with it: human, hek293, 72 h.
Another series deals with JIMT-1. Nature of the series: Antiproliferative activity against human JIMT-1 cells assessed as inhibition of cell viability at 10 uM measured after 72 hrs by CellTiter 96 Aqueous One Solution Cell Proliferation Assay relative to control. Format: functional.
The subject of the next series is BT-474. Nature of the series: Antiproliferative activity against human BT-474 cells assessed as inhibition of cell viability at 10 uM measured after 72 hrs by CellTiter 96 Aqueous One Solution Cell Proliferation Assay relative to control. It is filed as functional.

Structures are written as SMILES.

As for `COCCn1nc(NC(=O)c2ccc3c(c2OC)C=CC(C)(C)O3)c2ccccc21`, in the series on HEK293, the Activity entry is recorded as “Toxic”. In addition, the inhibition at 10 µM with JIMT-1 and with BT-474 was over 50% each time.

These data come from ChEMBL document CHEMBL5608181, “Discovery of indazole inhibitors for heat shock protein 90 as anti-cancer agents” (Eur J Med Chem, 2024).
